Test results from patent US20230041228A1, “Small Molecule Inhibition of Micro-RNA-210 Reprograms an Oncogenic Hypoxic Circuit” (University of Florida Research Foundation, Incorporated, priority 2017, published 2023).
“Also recorded” adds a separate entry of the source.

Experiments:
[1] = tested on: miR-210 hairpin precursor; assay: Cellular Chem-CLIP and C-Chem-CLIP, miR-210; assay type: cell-based; conditions: read-out: concentration required to inhibit ˜50% of the reaction of Targapremir-210-CA-Biotin with the miR-210 hairpin precursor (C-Chem-CLIP); MDA-MB-231 cells, 200 nM probe
Protocol: (§1) MDA-MB-231 cells were grown in growth medium as monolayers in 60 mm dishes to ˜60% confluency. […] Cells were immediately placed under hypoxic conditions for 48 h, and total RNA was extracted using a Quick-RNA MiniPrep (Zymo Research) per the manufacturer's protocol. Approximately 10 μg of total RNA was incubated with 100 μL of streptavidin-agarose beads in 1× PBS for 1 h at room temperature with gentle shaking. The solution was removed and the beads were washed 8 times with 300 μL of in 1× PBS. Bound RNA was released from the beads by heating in 1× Elution Buffer (95% formamide, 10 mM EDTA, pH 8.2) at 60° C. for 20 min. The pulled-down RNA was purified using a Quick-RNA MiniPrep Kit (Zymo Research) and then used for subsequent RT and qPCR reactions as described above.
(§2) The relative fold-change in the amount of an RNA before and after pull-down was calculated by the ΔΔCt method as shown in equation 1: […]
(§3) Relative Fold−Change:2^−(ΔC^t ^before pull-down−Δc^t ^after pull-down) (1)
(§4) where the “ΔCt before pull-down” is the difference between the Ct values for the RNA of interest and a housekeeping gene (U6 small nuclear RNA, GAPDH mRNA, or 18S rRNA) in total RNA isolated from cells and “ΔCtafter pull-down” is the difference between the Ct values the RNA of interest and the same housekeeping gene after pull-down.

pre-miR-210 RNA = assay: In solution fluorescent binding assay; conditions: compared with binding to the Dicer site motif
Protocol: Dissociation constants for the binding of pre-miR-210 RNA to Hoechst 33342 and Targapremir-210 were determined using an in solution, fluorescent binding assay. RNA was folded in 1× Binding Buffer (8 mM Na2HPO4, 190 mM NaCl, 1 mM EDTA, and 40 μg/mL BSA) at 60° C. for 5 min and then allowed to cool to room temperature for 10 min. Hoechst 33342 or Targapremir-210 was added to a final concentration of 500 nM. Next, 1:2 serial dilutions were performed in 1× Binding Buffer supplemented with 500 nM of Hoechst 33342 or Targapremir-210. Solutions were incubated for 30 min and then transferred to Corning non-binding surface 96-well black plates. Fluorescence intensity was then measured on a Bio-Tek FLX-800 plate reader. Change in fluorescence intensity was fit as a function of RNA concentration with equation 1: […]
where I and I0 are the observed fluorescence intensity in the presence and absence of RNA, respectively, Δε is the difference between the fluorescence intensity in the absence and in the presence of infinite RNA concentration, [FL]0 and [RNA]0 are the concentrations of compound (Hoechst 33342 or Targapremir-210) and RNA, respectively, and Kt is the dissociation constant.

GPD1L = assay: RT-qPCR of GPD1L in hypoxic MDA-MB-231 cells; assay type: cell-based; conditions: 200 nM
Protocol: (§5) MDA-MB-231 cells were cultured in RPMI 1640 medium supplemented with 10% FBS (Sigma), 1× Glutagro (Corning), and 1× Pen/Strep (MP Biomedicals, LLC) (growth medium). Cells cultured in normoxia were maintained at 37° C. in ambient atmosphere (˜21% O2) with 5% CO2. Cells cultured in hypoxia were maintained at 37° C., <1% O2 in a nitrogen filled hypoxic chamber (Billups-Rothenberg, Inc.), and 5% CO2.
(§6) Approximately 200-600 ng of RNA was used in subsequent reverse transcription reactions using a miScript II RT Kit (Qiagen) or a qScript cDNA Synthesis Kit (Quanta Biosciences) per the manufacturers' recommended protocols. Primers for RT-qPCR were purchased from Integrated DNA Technologies (IDT) or Eurofins (Table S1) and used without further purification. RT-qPCR samples were prepared using Power SYBR Green PCR Master Mix (Applied Biosystems) and completed by using a 7900HT Fast Real Time PCR System (Applied Biosystems). Expression levels of RNA were normalized to U6 small nuclear RNA, GAPDH mRNA, or 18S rRNA.

[2] = Tumor localization by fluorescent microscopy; assay type: in vivo, NOD/SCID mice; conditions: single i.p. injection
Protocol: Resected tumor samples were frozen using O.C.T. Compound (Tissue-Tek) over dry ice. Frozen tissues were sectioned by cryostat and transferred to microscope slides. Fluorescent microscopic analysis was carried out using a Leica DMI3000 B upright fluorescent microscope.

[3] = tested on: hypoxia-associated miRNAs; assay: Cellular Chem-CLIP and C-Chem-CLIP, hypoxia-associated miRNAs; assay type: cell-based
Protocol: as §1, §2, §3, §4

[4] = tested on: miRNAs with predicted compound binding sites; assay: Cellular selectivity, RT-qPCR of RNA isoforms; assay type: cell-based; conditions: hypoxic MDA-MB-231 cells
Protocol: as §5, §6

MDA-MB-231 cells = assay: Apoptosis by Annexin V/propidium iodide staining and flow cytometry; assay type: cell-based; conditions: 200 nM
Protocol: as §5

HIF-1α mRNA [5] = assay: RT-qPCR of HIF-1α mRNA in hypoxic MDA-MB-231 cells; assay type: cell-based; conditions: 200 nM
Protocol: as §5, §6

[6] = tested on: panel of hypoxia-associated miRNAs (n=28); assay: Cellular selectivity, RT-qPCR of hypoxia-associated miRNAs; assay type: cell-based; conditions: 200 nM, MDA-MB-231 cells
Protocol: as §5, §6

[7] = tested on: MDA-MB-231-GFP-Luc tumors; assay: TNBC mouse xenograft model, tumor burden; assay type: in vivo, NOD/SCID mice; conditions: 200 nM, cell pre-treatment or single injection 24 h post-implantation; 21 days
Protocol: NOD/SCID mice (B6.CB17-Prkdcscid/Sz, Jackson Laboratories) were housed in the Scripps Florida vivarium. All live animal experiments were approved by the Scripps Florida Institutional Animal Care and Use Committee. Two sets of experiments were completed: treatment of MDA-MB-231-GFP-luc cells prior to implantation and treatment of mice post-tumor implantation. For pre-treatment of tumor cells, MDA-MB-231-GFP-luc cells (5×10^6) were treated with or without Targapremir-210 (200 nM) or anti-miR-210 antagomir (500 nM) for 48 h pre-implantation. A 100 μL PBS/Matrigel (1:1; BD Biosciences) cell suspension was subcutaneously transplanted into mouse breast fat pads. Alternatively, mouse breast fat pads were injected with a 100 μL PBS/Matrigel (1:1) cell suspension (5×10^6MDA-MB-231-GFP-luc cells) followed by intraperitoneal (i.p) injection of Targapremir-210 (100 μL of 200 nM) or anti-miR-210 antagomir (100 μL of 500 nM) 24 h post-transplantation.
Tumor growth was monitored weekly post-implantation by i.p. injection of 200 μL D-luciferin (15 mg/mL) and imaging with an IVIS 200 system. Tumors were resected 21 days post-transplantation following euthanasia. Levels of mature miR-210, HIF-1a, and GPLDL1 RNAs were measured by RT-qPCR as described above.

[8] = biological target: pre-miR-210 Dicer site, 5′ACU3′/3′UCA5′; conditions: 5′ACU3′/3′UCA5′ motif; reference 15; read-out: Kd, binding affinity for the pre-miR-210 Dicer site; cited from earlier work
Topoisomerase II = biological target: T1, Topoisomerase II (Homo sapiens, UniProt P11388); assay: In vitro topoisomerase inhibition assay; assay type: biochemical; conditions: 200 nM
T1 construct: purchased TopoGEN, Inc
Protocol: Topoisomerase II inhibitory activity was measured using a Topoisomerase II Drug Screening Kit (TopoGEN, Inc.) per the manufacturer's protocol. Taragpremir-210 (200 nM) was added to 300 ng of DNA in 1× Complete Buffer (50 mM Tris-HCl, pH 8, 150 mM NaCl, 10 mM MgCl2, 0.5 mM dithiothreitol, 30 μg/mL BSA, and 2 mM ATP), followed by addition of 7.5 U of Topoisomerase II enzyme. The samples were incubated for 30 min at 37° C., and the reaction was stopped by the addition of 2 µL of 10% sodium dodecyl sulfate (SDS). Proteinase K (50 μg/mL) was then added and the solution was incubated for 15 min at 37° C. Topoisomers were separated on 1% agarose gels with or without 0.5 μg/mL ethidium bromide. Note, for gels containing ethidium bromide, the 1× TAE running buffer was also supplemented with 0.5 μg/mL ethidium bromide. Gels prepared without ethidium bromide were post-stained (0.5 μg/mL ethidium bromide). Both types of gels were destained in 1× TAE for 15 min, and the DNA products were visualized using a Bio-Rad Gel Doc XR+imaging system.

[9] = tested on: miR-210 hairpin precursor (pre-miR-210), Dicer processing; assay: In vitro Dicer protection assay; assay type: biochemical; conditions: recombinant human Dicer, gel quantification
Protocol: The miR-210 precursor was 5′-end labeled with [γ-^32P] ATP and T4 polynucleotide kinase as previously described^4. The RNA was then folded in 1× Reaction Buffer (Genlantis) by heating at 60° C. for 5 min and slowly cooling to room temperature, where it was then supplemented with 1 mM ATP and 2.5 mM MgCl2. Targapremir-210 was added to the reaction mixture and the samples were allowed to incubate at room temperature for 15 min. Recombinant human Dicer enzyme (Genlantis) was added to a final concentration of 0.01 U/μL and the samples were incubated for an additional 30 min at 37 ° C. Reactions were stopped by adding in 2× Gel Loading Buffer (8 M urea, 50 mM EDTA, 0.05% (w/v) bromophenol blue, 0.05% (w/v) xylene cyanol). To generate sequencing markers, pre-miR-210 was digested with RNase T1 (0.125 U/μL) in T1 Buffer (25 mM sodium citrate, pH 5, 7 M urea, and 1 mM EDTA) for 20 min at room temperature. An RNA hydrolysis ladder was prepared by incubating RNA in 1× RNA Hydrolysis Buffer (50 mM NaHCO3, 1 mM EDTA, pH 9.4) at 95° C. for 5 min. Cleavage products were resolved on a denaturing 15% polyacrylamide gel, which was imaged using a Molecular Dynamics Typhoon phosphorimager and quantified with Bio-Rad's QuantityOne software.

[10] = tested on: miR-96 and miR-210 levels; assay: Effect on miR-96 and miR-210 levels under hypoxic conditions; assay type: cell-based
[11] = tested on: RNA in which the Dicer site was ablated; conditions: reference 15; cited from earlier work
miR-210 [12] = assay: RT-qPCR of resected tumors, miR-210; assay type: in vivo, NOD/SCID mice; conditions: compared to untreated tumors
Protocol: as §6
(§7) NOD/SCID mice (B6.CB17-Prkdcscid/Sz, Jackson Laboratories) were housed in the Scripps Florida vivarium. All live animal experiments were approved by the Scripps Florida Institutional Animal Care and Use Committee. Two sets of experiments were completed: treatment of MDA-MB-231-GFP-luc cells prior to implantation and treatment of mice post-tumor implantation. For pre-treatment of tumor cells, MDA-MB-231-GFP-luc cells (5×10^6) were treated with or without Targapremir-210 (200 nM) or anti-miR-210 antagomir (500 nM) for 48 h pre-implantation. […]
(§8) Tumor growth was monitored weekly post-implantation by i.p. injection of 200 μL D-luciferin (15 mg/mL) and imaging with an IVIS 200 system. […] Levels of mature miR-210, HIF-1a, and GPLDL1 RNAs were measured by RT-qPCR as described above.

[13] = tested on: 15 miRNAs that have an RNA isoform that binds Targapremir-210; assay: Cellular Chem-CLIP, RNA isoforms; assay type: cell-based; conditions: MDA-MB-231 cells; miR-497, miR-1273c, miR-3174, miR-107
Protocol: as §1, §2, §3, §4

HIF-1α mRNA [14] = assay: RT-qPCR of resected tumors, HIF-1α; assay type: in vivo, NOD/SCID mice; conditions: compared to untreated tumors
Protocol: as §6, §7, §8

miR-210 [15] = assay: RT-qPCR of miR-210 (mature, pri-, pre-) in MDA-MB-231 cells under hypoxic conditions; assay type: cell-based
Protocol: as §5, §6

GPD1L mRNA = assay: RT-qPCR of resected tumors, GPD1L; assay type: in vivo, NOD/SCID mice; conditions: compared to untreated tumors
Protocol: as §6, §7, §8

[16] = 200 nM, hypoxic MDA-MB-231 cells

T1 sequence (P11388 whole entry): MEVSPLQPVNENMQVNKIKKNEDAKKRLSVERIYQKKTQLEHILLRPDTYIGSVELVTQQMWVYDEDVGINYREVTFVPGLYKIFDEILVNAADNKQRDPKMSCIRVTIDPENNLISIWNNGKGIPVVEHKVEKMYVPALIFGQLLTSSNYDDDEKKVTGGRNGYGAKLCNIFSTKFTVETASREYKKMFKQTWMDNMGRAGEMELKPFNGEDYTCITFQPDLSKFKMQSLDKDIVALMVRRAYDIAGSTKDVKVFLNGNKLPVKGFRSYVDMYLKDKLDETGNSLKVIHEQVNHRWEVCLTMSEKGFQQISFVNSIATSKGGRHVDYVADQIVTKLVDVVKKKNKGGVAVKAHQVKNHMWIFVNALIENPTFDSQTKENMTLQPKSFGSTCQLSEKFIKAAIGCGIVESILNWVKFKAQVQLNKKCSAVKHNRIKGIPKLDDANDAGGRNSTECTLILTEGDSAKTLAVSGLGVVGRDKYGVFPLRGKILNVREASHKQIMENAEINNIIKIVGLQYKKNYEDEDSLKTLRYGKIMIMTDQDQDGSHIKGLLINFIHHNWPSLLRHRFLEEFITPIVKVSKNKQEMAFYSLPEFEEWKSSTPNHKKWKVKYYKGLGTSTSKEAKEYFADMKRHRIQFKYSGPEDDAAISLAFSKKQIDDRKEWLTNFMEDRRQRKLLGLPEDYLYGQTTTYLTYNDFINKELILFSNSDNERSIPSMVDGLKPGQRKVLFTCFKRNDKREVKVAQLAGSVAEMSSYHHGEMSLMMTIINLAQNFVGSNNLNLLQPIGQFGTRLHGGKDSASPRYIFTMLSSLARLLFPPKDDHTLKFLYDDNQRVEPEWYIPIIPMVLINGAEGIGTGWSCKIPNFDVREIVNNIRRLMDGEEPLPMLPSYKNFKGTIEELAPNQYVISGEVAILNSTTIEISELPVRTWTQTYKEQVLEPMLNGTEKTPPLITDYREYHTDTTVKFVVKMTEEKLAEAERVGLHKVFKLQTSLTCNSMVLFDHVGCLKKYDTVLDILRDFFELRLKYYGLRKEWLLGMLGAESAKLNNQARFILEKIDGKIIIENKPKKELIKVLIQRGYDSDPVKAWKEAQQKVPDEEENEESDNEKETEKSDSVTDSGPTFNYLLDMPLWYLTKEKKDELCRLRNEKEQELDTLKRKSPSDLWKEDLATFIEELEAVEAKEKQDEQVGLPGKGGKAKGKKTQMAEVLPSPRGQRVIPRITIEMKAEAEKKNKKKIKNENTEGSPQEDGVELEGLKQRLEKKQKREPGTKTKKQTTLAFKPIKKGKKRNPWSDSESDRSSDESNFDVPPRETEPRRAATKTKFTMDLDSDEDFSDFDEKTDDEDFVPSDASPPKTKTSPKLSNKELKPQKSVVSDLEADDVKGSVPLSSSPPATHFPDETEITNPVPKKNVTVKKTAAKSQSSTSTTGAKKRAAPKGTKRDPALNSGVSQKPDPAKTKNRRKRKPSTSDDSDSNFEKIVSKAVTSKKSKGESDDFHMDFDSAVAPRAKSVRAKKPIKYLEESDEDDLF

CN1CCN(c2ccc3nc(-c4ccc5[nH]c(-c6cccc(OCCCC(=O)NCCCN=[N+]=[N-])c6)nc5c4)[nH]c3c2)CC1 [Targapremir-210]
IC50 [1]: 200 nM | binding to in vitro transcribed pre-miR-210 (pre-miR-210 RNA): binds similarly | increase of GPD1L levels (GPD1L): ~4 fold | compound localization in tumor [2]: able to reach the tumor and sustain for the entire 21-day period | highest relative fold pull-down among hypoxia-associated miRNAs other than miR-210 ([3]; Chem-CLIP probe pull-down, three of 28 enriched (miR-181a, miR-205, miR-206)): ~2.8 fold | abundance of other hypoxia-associated miRNAs as a function of Targapremir-210 concentration (C-Chem-CLIP) ([3]; MDA-MB-231 cells): did not change | effect on expression levels of miRNAs with predicted compound binding sites [4]: only affected levels of miR-210; also recorded: no statistically significant effect | apoptosis (MDA-MB-231 cells; hypoxic conditions): induced apoptosis | apoptosis with overexpression of pre-miR-210 (MDA-MB-231 cells; hypoxic conditions, pre-miR-210 overexpressed): allowed cells to escape apoptosis | apoptosis (MDA-MB-231 cells; normoxia): did not induce apoptosis | reduction of HIF-1α mRNA levels (HIF-1α mRNA [5]): ~75% | effect on levels of hypoxia-associated miRNAs [6]: affected only levels of mature miR-210 | tumor growth (luciferase signal intensity, mass of the resected tumor) [7]: significantly decreased tumor growth | Kd [8]: ~200 nM | inhibition of topoisomerase enzymatic activity (Topoisomerase II): did not inhibit topoisomerase activity | inhibition of Dicer processing of pre-miR-210 in vitro [9]: inhibited pre-miR-210 processing at nanomolar concentrations | effect on miR-96 and miR-210 levels [10]: only affects miR-210 | binding to RNA in which the Dicer site was ablated [11]: did not bind | reduction of miR-210 levels in resected tumors (miR-210 [12]): ~90% | miRNAs with RNA isoform bound in cells (Chem-CLIP) [13]: only four of the miRNAs are bound | reduction of HIF-1α levels in resected tumors (HIF-1α mRNA [14]): ~75% | increase in pre-miR-210 levels (miR-210 [15]; [16]): ~2.6 fold | increase in pri-miR-210 levels (miR-210 [15]; [16]): ~3 fold | IC50 (miR-210 [15]; Homo sapiens, MDA-MB-231 cells, hypoxic conditions, RT-qPCR, read-out: IC50, decrease of mature miR-210 levels): ~200 nM | GPD1L levels in resected tumors (GPD1L mRNA): doubled

Targaprimir-96 [reference compound]
effect on miR-96 and miR-210 levels [10]: only affects miR-96
